According to PubChem BioAssay (NCI):
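Interpolation was linear, between the two tested concentrations surrounding the appropriate level; five concentrations were tested over 48 hours in 96-well plates. The concentration for full growth arrest is given as TGI.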

Columns and labels:
Test in all cases: NCI anticancer screen, dose series, 48 h
SK-MEL-28 melanoma = system: SK-MEL-28 melanoma
OVCAR-3 ovarian = system: OVCAR-3 ovarian
HL-60(TB) leukemia = system: HL-60(TB) leukemia
SNB-19 CNS = system: SNB-19 CNS
SK-MEL-2 melanoma = system: SK-MEL-2 melanoma
UACC-257 melanoma = system: UACC-257 melanoma
CCRF-CEM leukemia = system: CCRF-CEM leukemia
HOP-92 NSCLC = system: HOP-92 NSCLC
SF-268 CNS = system: SF-268 CNS
CAKI-1 renal = system: CAKI-1 renal
MOLT-4 leukemia = system: MOLT-4 leukemia
MALME-3M melanoma = system: MALME-3M melanoma
NCI/ADR-RES ovarian = system: NCI/ADR-RES ovarian
KM12 colon = system: KM12 colon
DU-145 prostate = system: DU-145 prostate
K-562 leukemia = system: K-562 leukemia
HCT-116 colon = system: HCT-116 colon
TK-10 renal = system: TK-10 renal
PC-3 prostate = system: PC-3 prostate
UO-31 renal = system: UO-31 renal
SF-539 CNS = system: SF-539 CNS
OVCAR-8 ovarian = system: OVCAR-8 ovarian
786-0 renal = system: 786-0 renal
NCI-H460 lung = system: NCI-H460 lung
HS 578T breast = system: HS 578T breast
A498 renal = system: A498 renal
RXF 393 renal = system: RXF 393 renal
SN12C renal = system: SN12C renal
SF-295 CNS = system: SF-295 CNS
SR leukemia = system: SR leukemia
NCI-H522 lung = system: NCI-H522 lung
M14 melanoma = system: M14 melanoma
HCC-2998 colon = system: HCC-2998 colon
MDA-MB-435 = system: MDA-MB-435
IGROV1 ovarian = system: IGROV1 ovarian
U251 CNS = system: U251 CNS
MDA-N = system: MDA-N
OVCAR-5 ovarian = system: OVCAR-5 ovarian
UACC-62 melanoma = system: UACC-62 melanoma
EKVX NSCLC = system: EKVX NSCLC
SW-620 colon = system: SW-620 colon
MDA-MB-231 breast = system: MDA-MB-231 breast
SK-OV-3 ovarian = system: SK-OV-3 ovarian
COLO 205 colon = system: COLO 205 colon
A549 NSCLC = system: A549 NSCLC
ACHN renal = system: ACHN renal
HCT-15 colon = system: HCT-15 colon
MCF7 breast = system: MCF7 breast
RPMI-8226 leukemia = system: RPMI-8226 leukemia
HOP-62 NSCLC = system: HOP-62 NSCLC
T-47D breast = system: T-47D breast
LOX IMVI melanoma = system: LOX IMVI melanoma
SK-MEL-5 melanoma = system: SK-MEL-5 melanoma
NCI-H23 lung = system: NCI-H23 lung
HT29 colon = system: HT29 colon
SNB-75 CNS = system: SNB-75 CNS
OVCAR-4 ovarian = system: OVCAR-4 ovarian
BT-549 breast = system: BT-549 breast
NCI-H226 lung = system: NCI-H226 lung

COc1cc(/C=C\C(=O)O)ccc1OCc1ccccc1
TGI (SK-MEL-28 melanoma): > 100 µM
TGI (OVCAR-3 ovarian): > 100 µM
TGI (HL-60(TB) leukemia): > 100 µM
TGI (SNB-19 CNS): > 100 µM
TGI (SK-MEL-2 melanoma): > 100 µM
TGI (UACC-257 melanoma): > 100 µM
TGI (CCRF-CEM leukemia): > 100 µM
TGI (HOP-92 NSCLC): > 100 µM
TGI (SF-268 CNS): > 100 µM
TGI (CAKI-1 renal): > 100 µM
TGI (MOLT-4 leukemia): > 100 µM
TGI (MALME-3M melanoma): > 100 µM
TGI (NCI/ADR-RES ovarian): > 100 µM
TGI (KM12 colon): > 100 µM
TGI (DU-145 prostate): > 100 µM
TGI (K-562 leukemia): > 100 µM
TGI (HCT-116 colon): > 100 µM
TGI (TK-10 renal): > 100 µM
TGI (PC-3 prostate): > 100 µM
TGI (UO-31 renal): > 100 µM
TGI (SF-539 CNS): > 100 µM
TGI (OVCAR-8 ovarian): > 100 µM
TGI (786-0 renal): > 100 µM
TGI (NCI-H460 lung): > 100 µM
TGI (HS 578T breast): > 100 µM
TGI (A498 renal): > 100 µM
TGI (RXF 393 renal): > 100 µM
TGI (SN12C renal): > 100 µM
TGI (SF-295 CNS): > 100 µM
TGI (SR leukemia): > 100 µM
TGI (NCI-H522 lung): > 100 µM
TGI (M14 melanoma): > 100 µM
TGI (HCC-2998 colon): > 100 µM
TGI (MDA-MB-435): > 100 µM
TGI (IGROV1 ovarian): > 100 µM
TGI (U251 CNS): > 100 µM
TGI (MDA-N): > 100 µM
TGI (OVCAR-5 ovarian): > 100 µM
TGI (UACC-62 melanoma): > 100 µM
TGI (EKVX NSCLC): > 100 µM
TGI (SW-620 colon): > 100 µM
TGI (MDA-MB-231 breast): > 100 µM
TGI (SK-OV-3 ovarian): > 100 µM
TGI (COLO 205 colon): > 100 µM
TGI (A549 NSCLC): > 100 µM
TGI (ACHN renal): > 100 µM
TGI (HCT-15 colon): > 100 µM
TGI (MCF7 breast): > 100 µM
TGI (RPMI-8226 leukemia): > 100 µM
TGI (HOP-62 NSCLC): > 100 µM
TGI (T-47D breast): > 100 µM
TGI (LOX IMVI melanoma): > 100 µM
TGI (SK-MEL-5 melanoma): > 100 µM
TGI (NCI-H23 lung): > 100 µM

CC(C)(C)[Si](C)(C)OCC1OC(n2cnc3c(N)ncnc32)C(O[Si](C)(C)C(C)(C)C)C1O[Si](C)(C)C(C)(C)C (configuration not stated)
TGI (OVCAR-3 ovarian): 13.8 µM
TGI (SK-MEL-2 melanoma): 49.4 µM
TGI (UACC-257 melanoma): > 100 µM
TGI (HOP-92 NSCLC): > 100 µM
TGI (SF-268 CNS): 56.5 µM
TGI (MOLT-4 leukemia): 12.8 µM
TGI (MALME-3M melanoma): > 100 µM
TGI (NCI/ADR-RES ovarian): > 100 µM
TGI (DU-145 prostate): > 100 µM
TGI (HCT-116 colon): 22.4 µM
TGI (HT29 colon): > 100 µM
TGI (SNB-75 CNS): 27.6 µM
TGI (PC-3 prostate): 30 µM
TGI (OVCAR-8 ovarian): 42 µM
TGI (786-0 renal): 18.6 µM
TGI (NCI-H460 lung): 27.3 µM
TGI (HS 578T breast): 58.5 µM
TGI (SN12C renal): 34.9 µM
TGI (SF-295 CNS): 62.3 µM
TGI (SR leukemia): 86.7 µM
TGI (NCI-H522 lung): 21.3 µM
TGI (M14 melanoma): 67.4 µM
TGI (IGROV1 ovarian): > 100 µM
TGI (MDA-N): > 100 µM
TGI (UACC-62 melanoma): 51.6 µM
TGI (EKVX NSCLC): 64.7 µM
TGI (SW-620 colon): > 100 µM
TGI (MDA-MB-231 breast): 54.1 µM
TGI (COLO 205 colon): > 100 µM
TGI (A549 NSCLC): 48.5 µM
TGI (ACHN renal): 27.2 µM
TGI (HCT-15 colon): > 100 µM
TGI (HOP-62 NSCLC): 46 µM
TGI (T-47D breast): 46.4 µM
TGI (LOX IMVI melanoma): 39.2 µM
TGI (SK-MEL-5 melanoma): 14.4 µM

CC(C)(CC(=O)Nc1ccccc1)C(=O)O
TGI (SK-MEL-28 melanoma): > 100 µM
TGI (OVCAR-3 ovarian): > 100 µM
TGI (HL-60(TB) leukemia): > 100 µM
TGI (SNB-19 CNS): > 100 µM
TGI (SK-MEL-2 melanoma): > 100 µM
TGI (UACC-257 melanoma): > 100 µM
TGI (CCRF-CEM leukemia): > 100 µM
TGI (HOP-92 NSCLC): > 100 µM
TGI (CAKI-1 renal): > 100 µM
TGI (OVCAR-4 ovarian): > 100 µM
TGI (MOLT-4 leukemia): > 100 µM
TGI (NCI/ADR-RES ovarian): > 100 µM
TGI (KM12 colon): > 100 µM
TGI (DU-145 prostate): > 100 µM
TGI (BT-549 breast): > 100 µM
TGI (K-562 leukemia): > 100 µM
TGI (HCT-116 colon): > 100 µM
TGI (HT29 colon): > 100 µM
TGI (TK-10 renal): > 100 µM
TGI (PC-3 prostate): > 100 µM
TGI (UO-31 renal): > 100 µM
TGI (SF-539 CNS): > 100 µM
TGI (OVCAR-8 ovarian): > 100 µM
TGI (786-0 renal): > 100 µM
TGI (NCI-H460 lung): > 100 µM
TGI (A498 renal): > 100 µM
TGI (SN12C renal): > 100 µM
TGI (SF-295 CNS): > 100 µM
TGI (SR leukemia): > 100 µM
TGI (NCI-H226 lung): > 100 µM
TGI (M14 melanoma): > 100 µM
TGI (MDA-MB-435): > 100 µM
TGI (IGROV1 ovarian): > 100 µM
TGI (U251 CNS): > 100 µM
TGI (MDA-N): > 100 µM
TGI (OVCAR-5 ovarian): > 100 µM
TGI (UACC-62 melanoma): > 100 µM
TGI (EKVX NSCLC): > 100 µM
TGI (SW-620 colon): > 100 µM
TGI (MDA-MB-231 breast): > 100 µM
TGI (SK-OV-3 ovarian): > 100 µM
TGI (COLO 205 colon): > 100 µM
TGI (A549 NSCLC): > 100 µM
TGI (ACHN renal): > 100 µM
TGI (HCT-15 colon): > 100 µM
TGI (MCF7 breast): > 100 µM
TGI (RPMI-8226 leukemia): > 100 µM
TGI (HOP-62 NSCLC): > 100 µM
TGI (T-47D breast): > 100 µM
TGI (LOX IMVI melanoma): > 100 µM
TGI (SK-MEL-5 melanoma): > 100 µM
TGI (NCI-H23 lung): > 100 µM

COc1ccc2c(c1)CN1C(=N2)CSC1c1ccccc1Cl (configuration not stated)
TGI (SK-MEL-28 melanoma): 26.9 µM
TGI (HL-60(TB) leukemia): 24.9 µM
TGI (SNB-19 CNS): > 100 µM
TGI (SK-MEL-2 melanoma): 37.3 µM
TGI (UACC-257 melanoma): 28.8 µM
TGI (HOP-92 NSCLC): 31.2 µM
TGI (SF-268 CNS): 76.4 µM
TGI (CAKI-1 renal): > 100 µM
TGI (OVCAR-4 ovarian): 45.1 µM
TGI (MOLT-4 leukemia): 19 µM
TGI (MALME-3M melanoma): 47.9 µM
TGI (NCI/ADR-RES ovarian): 53.8 µM
TGI (KM12 colon): 34.8 µM
TGI (BT-549 breast): 80.3 µM
TGI (K-562 leukemia): 30.5 µM
TGI (HCT-116 colon): 33.1 µM
TGI (HT29 colon): 32.8 µM
TGI (SNB-75 CNS): 48.8 µM
TGI (TK-10 renal): 68 µM
TGI (PC-3 prostate): 70.5 µM
TGI (UO-31 renal): 38.3 µM
TGI (SF-539 CNS): 32.1 µM
TGI (OVCAR-8 ovarian): 43.2 µM
TGI (786-0 renal): 34.5 µM
TGI (NCI-H460 lung): 32.7 µM
TGI (HS 578T breast): 82.5 µM
TGI (RXF 393 renal): 29.7 µM
TGI (SN12C renal): 40.1 µM
TGI (SF-295 CNS): 75.6 µM
TGI (SR leukemia): 27 µM
TGI (NCI-H226 lung): 31.3 µM
TGI (NCI-H522 lung): 39.2 µM
TGI (M14 melanoma): 35.4 µM
TGI (HCC-2998 colon): 29.8 µM
TGI (MDA-MB-435): 39.9 µM
TGI (IGROV1 ovarian): 42.2 µM
TGI (U251 CNS): 59.6 µM
TGI (MDA-N): 36.1 µM
TGI (OVCAR-5 ovarian): 46.8 µM
TGI (UACC-62 melanoma): 34.6 µM
TGI (EKVX NSCLC): 35.4 µM
TGI (SW-620 colon): 41.7 µM
TGI (MDA-MB-231 breast): 67.5 µM
TGI (SK-OV-3 ovarian): 79.2 µM
TGI (COLO 205 colon): 28.3 µM
TGI (A549 NSCLC): > 100 µM
TGI (ACHN renal): 41.8 µM
TGI (HCT-15 colon): 38.9 µM
TGI (MCF7 breast): > 100 µM
TGI (RPMI-8226 leukemia): 29.9 µM
TGI (HOP-62 NSCLC): > 100 µM
TGI (T-47D breast): > 100 µM
TGI (LOX IMVI melanoma): 28.9 µM
TGI (SK-MEL-5 melanoma): 28.5 µM
TGI (NCI-H23 lung): 3.45 µM
